# Laboratory results published in US7138415B2, “Indolamid derivatives which possess glycogenphosphorylase inhibitory activity” (AstraZeneca AB, priority 2002, dated 2006).
# Experiments:
# [1] = conscious dogs; cited from earlier work
# [2] = db/db and ob/ob mice; cited from earlier work
# hepatocytes = conditions: cited from earlier work
# [3] = target: T1, Human recombinant liver glycogen phosphorylase α (hrl GPα) (Homo sapiens, UniProt P06737); assay: Glycogen phosphorylase inhibition of glycogen degradation (multienzyme coupled assay, NADH fluorescence); type: biochemical; conditions: glycogen degradation direction
# T1 sequence (P06737 1-847): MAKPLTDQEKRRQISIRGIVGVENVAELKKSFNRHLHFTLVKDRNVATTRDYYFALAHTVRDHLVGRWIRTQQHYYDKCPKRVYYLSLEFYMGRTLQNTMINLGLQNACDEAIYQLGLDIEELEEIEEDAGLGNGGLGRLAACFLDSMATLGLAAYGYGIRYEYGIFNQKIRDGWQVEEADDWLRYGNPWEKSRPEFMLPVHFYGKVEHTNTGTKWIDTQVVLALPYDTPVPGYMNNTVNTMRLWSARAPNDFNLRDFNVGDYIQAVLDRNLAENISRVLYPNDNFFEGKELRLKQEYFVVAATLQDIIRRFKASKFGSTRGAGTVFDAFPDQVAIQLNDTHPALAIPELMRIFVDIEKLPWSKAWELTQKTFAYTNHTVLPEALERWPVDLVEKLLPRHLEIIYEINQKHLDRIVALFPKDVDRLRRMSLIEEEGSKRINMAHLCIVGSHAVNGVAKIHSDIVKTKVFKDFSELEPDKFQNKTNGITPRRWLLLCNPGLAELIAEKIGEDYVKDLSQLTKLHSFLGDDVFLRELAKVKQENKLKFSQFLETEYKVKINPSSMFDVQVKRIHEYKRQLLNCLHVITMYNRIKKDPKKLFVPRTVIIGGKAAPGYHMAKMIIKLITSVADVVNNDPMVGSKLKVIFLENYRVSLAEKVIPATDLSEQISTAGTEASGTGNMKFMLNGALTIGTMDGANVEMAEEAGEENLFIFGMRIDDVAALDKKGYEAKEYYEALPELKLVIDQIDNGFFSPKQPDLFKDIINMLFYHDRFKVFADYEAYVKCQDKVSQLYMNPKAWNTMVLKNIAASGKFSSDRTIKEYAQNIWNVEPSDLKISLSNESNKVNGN
# Protocol: The activity of the compounds is alternatively determined by measuring the inhibitory effect of the compounds on glycogen degradation, the production of glucose-1-phosphate from glycogen is monitored by the multienzyme coupled assay, as described in EP 0 846 464 A2, general method of Pesce et al (Pesce, M A, Bodourian, S H, Harris, R C, and Nicholson, J F (1977) Clinical Chemistry 23, […]). The reactions were in 384well microplate format in a volume of 50 μl. The change in fluorescence due to the conversion of the co-factor NAD to NADH is measured at 340 nm excitation, 465 nm emission in a Tecan Ultra Multifunctional Microplate Reader. The reaction is in 50 mM HEPES, 3.5 mM KH2PO4, 2.5 mM MgCl2, 2.5mM ethylene glycol-bis(b-aminoethyl ether) N,N,N′,N′-tetraacetic acid, 100 mM KCl, 8mM D-(+)-glucose pH7.2, containing 0.5 mM dithiothreitol, the assay buffer solution. Human recombinant liver glycogen phosphorylase α (hrl GPα) 20 nM is pre-incubated in assay buffer solution with 6.25 mM NAD, 1.25 mg type III glycogen at 1.25 mg ml^−1 the reagent buffer, for 30 minutes. […] The non-inhibited activity of GPα is measured in the presence of 10 μl 5% DMSO in assay buffer solution and maximum inhibition measured in the presence of 5 mgs ml^−1 N-ethylmaleimide. […] Relative Fluoresence Units (RFUs) are measured at 340 nm excitation, 465 nm emission. […]
Structure (SMILES),arterial plasma glucose following a glucagon challenge [1],hepatic glucose output following a glucagon challenge [1],plasma glucose concentration [2],glucagon stimulated glycogenolysis (hepatocytes),glucose output in hepatocytes (hepatocytes),IC50 [3]
CCN1C(C)=C(C(=O)OC(C)C)C(c2ccccc2Cl)C2=C1COC2=O (stereo not drawn) [Bay R 3401],reduced significantly,reduced significantly,–,–,–,–
CN(C)C(=O)[C@H](O)[C@H](Cc1ccccc1)NC(=O)c1cc2cc(Cl)ccc2[nH]1 [CP91149],–,–,"reduced, in a dose related manner",reduce,reduce,–
O=C(N[C@@H](Cc1ccc(F)cc1)C(=O)N1CCC(O)CC1)c1cc2cc(Cl)ccc2[nH]1 [CP320626],–,–,"reduced, in a dose related manner",reduce,reduce,–
"O=C(CN(CCO)Cc1ccccc1)N[C@@H]1c2ccccc2C[C@H]1NC(=O)c1cc2cc(Cl)ccc2[nH]1 [Example 17, 5-Chloro-N-[(1R,2R)-1-({[(2-hydroxyethyl)(phenylmethyl)amino]acetyl}amino)-2,3-dihydro-1H-inden-2-yl]-1H-indole-2-carboxamide]",–,–,–,–,–,7.4 µM
